Laboratory results: PMC7588595, “Small-molecule active pharmaceutical ingredients of approved cancer therapeutics inhibit human aspartate/asparagine-β-hydroxylase” (Bioorganic & Medicinal Chemistry, 2020)
Read-outs that look alike come from different tables or passages of the source.

Key:
[1] = target: T1, human AspH (His6-AspH315–758) (Homo sapiens, UniProt Q12797); assay: SPE-MS AspH inhibition assay (hFX-CP101-119 substrate hydroxylation); format: biochemical; settings: for inhibition at 20 µM / AspH inhibition at 20 μM: 20 μM fixed inhibitor, relative to DMSO and 2,4-PDCA controls; for Hill coefficient of AspH inhibition curves: dose-response curves of SPE-MS AspH inhibition assay; for remaining activity at 20 µM: 20 μM fixed inhibitor concentration
T1 construct: N-Terminally His6-tagged human AspH315–758 (His6-AspH315–758) was produced in Escherichia coli BL21 (DE3) cells; made in house; host or cells: Escherichia coli BL21 (DE3), pET-28a(+) vector
T1 sequence (Q12797 315-758): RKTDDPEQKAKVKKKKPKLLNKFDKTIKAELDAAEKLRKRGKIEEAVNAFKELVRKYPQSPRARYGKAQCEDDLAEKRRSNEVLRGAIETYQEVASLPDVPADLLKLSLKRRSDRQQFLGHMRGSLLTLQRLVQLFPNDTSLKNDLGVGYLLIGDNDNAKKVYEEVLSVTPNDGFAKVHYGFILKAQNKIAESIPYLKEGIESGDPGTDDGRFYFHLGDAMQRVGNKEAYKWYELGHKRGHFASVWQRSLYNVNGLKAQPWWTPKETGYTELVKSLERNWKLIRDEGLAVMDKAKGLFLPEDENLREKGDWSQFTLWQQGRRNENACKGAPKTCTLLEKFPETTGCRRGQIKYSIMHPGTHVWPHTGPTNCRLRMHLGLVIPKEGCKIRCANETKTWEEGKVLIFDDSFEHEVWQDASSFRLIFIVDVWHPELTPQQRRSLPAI

[2] = target: T2, His6-AspH315–758 (Homo sapiens, UniProt Q12797); assay: AspH differential scanning fluorimetry (DSF) assay, melting temperature shift; format: binding; settings: 40 μM inhibitor, 4 μM His6-AspH315–758, with respect to DMSO controls; for ΔTm at 40 µM: read-out: Tm-shift (ΔTm) of AspH
T2 construct: A mixture of SYPRO orange (1‰v/v) and His6-AspH315–758 (4 μM) in 50 mM aqueous HEPES buffer; made in house; host or cells: Escherichia coli BL21 (DE3), pET-28a(+) vector
T2 sequence (Q12797 315-758): T1 sequence (Q12797 315-758)
Description: A mixture of SYPRO orange (1‰v/v) and His6-AspH315–758 (4 μM) in 50 mM aqueous HEPES buffer (pH 7.5, 150 mM NaCl, 50 μM NiCl2) was carefully pipetted into a 96-well VWR PCR-plate (38 μL per well). An inhibitor solution (0.8 mM in DMSO) or a negative control sample (pure DMSO) was added to each well (2 μL per well, final inhibitor concentration of 40 μM) and the resulting solutions were gently mixed using a pipette. The plate was sealed with optical tape (Bio-Rag, iCycler iQ), centrifuged (5 sec, 1000 rpm) and placed into a C1000Touch Thermal Cycler equipped with a CFX96 Real-Time System (Bio-Rad). The instrument was heated with a rate of 1 °C per cycle (starting at an initial temperature of 25 °C; 70 cycles total). Data were analyzed using Microsoft Excel and GraphPad Prism according to the literature.[107] DSF assays were performed in independent duplicates, each composed of technical duplicates (Supporting Fig. S4).

[3] = tested on: Bcl-XL; settings: fluorescence polarisation, 30 nM enzyme concentration; cited from earlier work
[4] = 50 nM His6-AspH315–758, 1 μM hFX-CP101–119, 100 μM LAA, 3 μM 2OG, 2 μM FAS, 50 mM HEPES pH 7.5, 20 °C, read-out: IC50
[5] = 50 nM His6-AspH315–758, 1 μM hFX-CP101–119, 100 μM LAA, 3 μM 2OG, 2 μM FAS, 50 mM HEPES pH 7.5, 20 °C
[6] = read-out: IC50 at 10 μM substrate, 10 μM hFX-CP101–119 and 10 μM 2OG instead of 1 μM hFX-CP101–119 and 3 μM 2OG
[7] = read-out: IC50 at 200 μM 2OG, 200 μM 2OG instead of 3 μM 2OG
[8] = read-out: IC50 at 20 μM Fe(II), 20 μM Fe(II) instead of 2 μM Fe(II)
[9] = AspH-inhibitor screening, 384-well Plate 1
[10] = AspH-inhibitor screening, 384-well Plate 1, substrate conversion
[11] = AspH-inhibitor screening, Plate 1-duplicate
[12] = AspH-inhibitor screening, Plate 1-duplicate, substrate conversion

| Compound | IC50 [1, 4] [nM] | IC50 [1, 6] [nM] | IC50 [1, 7] [nM] | Plate 1 (% inhibition) [1, 9] [%] | Plate 1 (% conversion) [1, 10] [%] | Plate 1-duplicate (% inhibition) [1, 11] [%] | Plate 1-duplicate (% conversion) [1, 12] [%] | further results |
| --- | --- | --- | --- | --- | --- | --- | --- | --- |
| O=C(O)c1ccnc(C(=O)O)c1 [2,4-PDCA, Pyridine-2,4-dicarboxylic acid, reference compound] | 20 ± 10 | 20 ± 10 | 100 ± 30 | – | – | – | – | inhibition at 20 µM [1, 5]: 100 ± 0.6%; ΔTm at 40 µM [2]: 3.2 ± 0.4 °C |
| Cc1cc2c(C(C)C)c(O)c(O)c(C=O)c2c(O)c1-c1c(C)cc2c(C(C)C)c(O)c(O)c(C=O)c2c1O [(R)-Gossypol, reference compound] | 250 ± 10 | 330 ± 20 | 250 ± 10 | – | – | – | – | AspH inhibition at 20 μM [1, 5]: Complete suppression of AspH activity; inhibition at 20 µM [1, 5]: 101 ± 2.3%; IC50 [1, 8]: 260 ± 30 nM; IC50 [3]: ~500 nM |
| CN(C)CC[C@H](CSc1ccccc1)Nc1ccc(S(=O)(=O)NC(=O)c2ccc(N3CCN(Cc4ccccc4-c4ccc(Cl)cc4)CC3)cc2)cc1[N+](=O)[O-] [ABT-737, reference compound] | 3380 ± 340 | 2990 ± 350 | 4470 ± 1320 | – | – | – | – | IC50 [1, 8]: 2920 ± 880 nM; ΔTm at 40 µM [2]: 1.5 ± 0.1 °C |
| O=C(/C=C/c1cccc(S(=O)(=O)Nc2ccccc2)c1)NO [Belinostat, reference compound] | 7490 ± 1260 | 4770 ± 100 | 11200 ± 4000 | – | – | – | – | AspH inhibition at 20 μM [1, 5]: 97.1 ± 0.2%; inhibition at 20 µM [1, 5]: > 90%; Hill coefficient of AspH inhibition curves [1]: < -2.0; IC50 [1, 8]: 3100 ± 1440 nM; ΔTm at 40 µM [2]: 0.1 ± 0.2 °C |
| CC1(C)CCC(c2ccc(Cl)cc2)=C(CN2CCN(c3ccc(C(=O)NS(=O)(=O)c4ccc(N[C@H](CCN5CCOCC5)CSc5ccccc5)c(S(=O)(=O)C(F)(F)F)c4)cc3)CC2)C1 [Navitoclax, reference compound] | 1030 ± 120 | 1210 ± 40 | 1330 ± 170 | – | – | – | – | IC50 ([1]; 50 nM His6-AspH315–758, 1 μM hFX-CP101–119, 100 μM LAA, 3 μM 2OG, 2 μM FAS, 50 mM HEPES pH 7.5, 20 °C, listed as navitoclax, read-out: IC50): ~1000 nM; remaining activity at 20 µM [1]: ~10%; inhibition at 20 µM [1, 5]: 90.1 ± 0.1%; IC50 [1, 8]: 800 ± 420 nM; ΔTm at 40 µM [2]: -2.1 ± 0.3 °C |
| CC1(C)CCC(CN2CCN(c3ccc(C(=O)NS(=O)(=O)c4ccc(NCC5CCOCC5)c([N+](=O)[O-])c4)c(Oc4cnc5[nH]ccc5c4)c3)CC2)=C(c2ccc(Cl)cc2)C1 [Venetoclax, reference compound] | 1400 ± 140 | 1570 ± 210 | 1520 ± 240 | 97.05 | 4.94 | 97.31 | 3.78 | IC50 ([1]; 50 nM His6-AspH315–758, 1 μM hFX-CP101–119, 100 μM LAA, 3 μM 2OG, 2 μM FAS, 50 mM HEPES pH 7.5, 20 °C, listed as venetoclax, read-out: IC50): ~1400 nM; remaining activity at 20 µM [1]: ~3%; inhibition at 20 µM [1, 5]: 97.2 ± 0.2%; selectivity for Bcl-2 over AspH ([1]; Bcl-2 inhibited more efficiently than AspH): ~ 1000 fold; Hill coefficient of AspH inhibition curves [1]: < -2.0; IC50 [1, 8]: 1290 ± 240 nM; ΔTm at 40 µM [2]: 0.7 ± 0.3 °C |
| COc1cc2c(Oc3ccc(NC(=O)C4(C(=O)Nc5ccc(F)cc5)CC4)cc3F)ccnc2cc1OCCCN1CCOCC1 [XL880 (Foretinib)] | – | – | – | -64.58 | 79.57 | -62.78 | 83.18 | – |
| COc1ccc(Cl)c(Nc2nc3ccccc3nc2NS(=O)(=O)c2cccc(NC(=O)C(C)(C)N)c2)c1 [XL-147] | – | – | – | 3.96 | 47.92 | 7.32 | 48.41 | – |
| COCCn1c2c([n+](Cc3cnccn3)c1C)C(=O)c1ccccc1C2=O [YM155] | – | – | – | -27.18 | 62.30 | -43.09 | 73.41 | – |
| FC(F)c1nc2ccccc2n1-c1nc(N2CCOCC2)nc(N2CCOCC2)n1 [ZSTK474] | – | – | – | -1.18 | 50.29 | 1.69 | 51.20 | – |
| O=P(O)(O)C(O)(Cn1ccnc1)P(=O)(O)O [Zoledronic acid] | – | – | – | 19.60 | 40.70 | 13.13 | 45.53 | – |
| O=C(O)c1ccnc(C(=O)O)c1 [pyridine-2,4-dicarboxylic acid] | – | – | – | – | – | – | – | Plate 1 (% inhibition) ([1]; 100 uM 2,4-PDCA controls, columns 23, 24, Plate 1): 101.14%; Plate 1-duplicate (% inhibition) ([1]; 100 uM 2,4-PDCA controls, columns 23, 24, Plate 1-duplicate): 99.94% |
| AT 101 | – | – | – | 102.80 | 2.28 | 99.60 | 2.64 | – |
| AZ 3146 | – | – | – | -12.15 | 55.36 | 4.56 | – | – |
| AZD4547 | – | – | – | -11.19 | 54.92 | -5.75 | 54.89 | – |
| Bleomycin sulfate | – | – | – | 98.37 | 4.32 | 96.60 | 4.13 | – |
| KX2-391 | – | – | – | 2.59 | 48.55 | 1.17 | 51.46 | – |
| Mithramycin A [reference compound] | – | – | – | – | – | – | – | Tm-shift (ΔTm) of AspH [2]: 0.4 ± 0.2 °C |
| VX-11e | – | – | – | – | – | – | – | Plate 1 (% conversion) [1]: 33.84%; Plate 1 (% inhibition) [1]: 34.46%; Plate 1-duplicate (% conversion) [1]: 36.75%; Plate 1-duplicate (% inhibition) [1]: 30.84% |
